# Entries after “also recorded” stand apart in the source; their conditions may differ. Where a name gives a salt, the structure may show the parent alone. Marks after values point to notes of the source that are not given here.
# What was measured:
# PC3 cells = test: GI50 (50% inhibition of cell growth), MTT assay, 72 hours; type: cell-based; settings: Homo sapiens, PC-3, 72 h, PC3, 72 hours, 1 ng/ml to 10 ug/ml (Example 8)
# Method: (§1) The cells were plated onto a 96 well plate and treated with different concentrations of the compounds from 1 ng/ml to 10 ug/ml for 72 hours followed by MTT assay.
# (§2) The cells were plated onto a 96 well plate and treated with different concentrations of the compounds from 0.04 ng/ml to 400 ng/ml for 72 hours followed by MTT assay.
# PANC-1 cells = test: as above; type: cell-based; settings: Homo sapiens, PANC-1, 72 h, 1 ng/ml to 10 ug/ml (Example 8)
# Method: as §1, §2
# [1] = test system: normal (non-cancer) cell line WI-38; test: Cellular inhibition, Alamar Blue; type: cell-based
# Method: (§3) Assays were performed with 3 cancer cell lines: breast (SKBR3), pancreatic (Panc1), prostate (PC-3) and 1 normal (nor-cancer) cell line (WI-38). Compounds were delivered to the cells after dissolving in DMSO. Five dilutions per compound were tested on a total of 4 cell lines in 96 well plates. Cellular inhibition was measured using Alamar Blue. After addition of compound a 24 hour and 48 hour time point using fluorescent plate reader was taken. Data from plate reader was analyzed in the following way: % inhibition bar graphs, % inhibition line graphs and IC50 growth inhibition values. In Tables 7-14, IC50 units are Molar (M).
# [2] = test system: pancreatic (Panc1) cancer cell line; test: Cellular inhibition, Alamar Blue; type: cell-based; settings: for inhibition of proliferation: Panc-1, 48 hours
# Method: as §3
# [3] = test system: breast (SKBR3) cancer cell line; test: Cellular inhibition, Alamar Blue; type: cell-based; settings: for inhibition of proliferation: skbr3, 48 hours
# Method: as §3
# [4] = test system: prostate (PC-3) cancer cell line; test: Cellular inhibition, Alamar Blue; type: cell-based; settings: for inhibition of proliferation: PC-3, 48 hours
# Method: as §3
# [5] = test system: carrageenan induced rat paw edema; test: Carrageenan induced rat paw edema; type: in vivo, albino rats; settings: for Percent inhibition of paw edema (Std. Error): Example 9, 100 mg/kg oral with food; for Paw circumference: Example 8 (in vivo), 100 mg/kg oral with food
# Method: Animals were kept under 13 hour day night cycle. Animals were given standard diet and water was provided ad, libitum. All animals were acclimatized for at least one week before the experimental session. Animals were divided in to five groups. Each group consisted of 8 animals.
# Pedal inflammation in albino rats of either sex was produced according to the method of Winter et al., (Proc Soc Exp Biol Med 1963; 111: 544-7). An injection was made with 0.1 ml of 1% carrageenan (SIGMA) suspension into the right hind foot of each rat in the plantar region. […] Control group 5 was given 0.5 ml saline and groups 1 and 2 received aspirin. Increase in linear paw circumference was measured by tying a piece of cotton thread round the rat's paw, and noting the point of intersection of two ends on a meter scale. This was taken as an index of increase in paw volume, which is a measure of oedema (Bamgbose S O A, Noamesi B K. Planta Med 1981; 42: 392-6). Measurements were taken immediately before and at 1, 2 and 3 hours after carrageenan injection. The inhibitory activity was calculated according to the following formula (Awe S O, Olajide O A, Adeboye J O, Makinde J M. Indian J Pharmacol 1998; 30: 38-42):
# [formula] Ct-Linear paw circumference 3 hours after carrageenan injection and Co-Linear paw circumference before carrageenan injection.
# Albino rats obtained from central animal house of institute were used in the study. The animals were kept under 12 hour day night cycle. Animals were given standard diet and water was provided ad libitum. All animals were acclimatized for at least one week before the experimental session. Animals were divided into twelve groups in the carrageenan induced paw edema and tail flick method. Each group consisted of 4 animal each.
# Animals were divided into eight groups in the carrageenan induced paw edema and tail flick method. Each group consisted of 6 animal each. The groups received various chemicals as given in Table 16 by oral administration with food. The following methods were used to evaluate the activity of the compositions:
# Pedal inflammation in albino rats of either sex was produced according to the method of Winter et al. (Proc. Soc. Exp. Biol. Med., 1963, 111: 544-547). An injection was made with 0.1 ml of 1% carrageenan (SIGMA) suspension into the right hind foot of each rat in the plantar region. The various chemicals were given 30 minutes before carrageenan injection. Increase in linear paw circumference was measured by tying a piece of cotton thread round the rat's paw, and noting the point of intersection of two ends on a meter scale. This was taken as an index of increase in paw volume, which is a measure of edema (Bamgbose, S. O. A. & Noamesi, B. K., Planta. Med., 1981, 42: 392-396). Measurements were taken immediately before and at 1, 2 and 3 hours after carrageenan injection. The inhibitory activity was calculated according to the following formula (Awe S O, Olajide O A, Adeboye J O, Makinde J M. Indian J. Pharmacol., 1998; 30: 38-42):
# Animals were divided into six groups in the carrageenan induced paw edema and tail flick method. Each group consisted of 8 animals each. Carrageenan-induced rat paw edema and Tail flick test were performed as discussed above in Example 8. Data were analyzed using analysis of variance (ANOVA) with Posthoc Bonferroni multi-comparisons. P<0.05 was considered as statistically significant.
# [6] = test system: tail flick latency in rats; test: Tail flick test (analgesic activity); type: in vivo, albino rats
# Method: Rats were screened for tail flip reaction with a cut-off time of 5 seconds. For each animal, the tail flick latency was obtained thrice before drug administration and mean was used as pre-drug latency. The tail flick latencies were measured at 0, 0.5, 1, 1.5, 2 and 3 h after administration chemicals.
# Albino rats obtained from central animal house of institute were used in the study. The animals were kept under 12 hour day night cycle. Animals were given standard diet and water was provided ad libitum. All animals were acclimatized for at least one week before the experimental session. […] Each group consisted of 4 animal each.
# Rats were screened for tail flip reaction with a cut-off time of 5 seconds. For each animal, the tail flick latency was obtained thrice before drug administration and mean was used as pre-drug latency. The tail flick latencies were measured at 0, 0.5, 1, 1.5, 2 and 3 h after administration of chemicals.
# Each group consisted of 8 animals each. […] Data were analyzed using analysis of variance (ANOVA) with Posthoc Bonferroni multi-comparisons. P<0.05 was considered as statistically significant.
# [7] = In vitro enzyme hydrolysis in human serum (HPLC); type: in vitro ADME; settings: 25% human serum; for Test compound Rate: rate of decomposition of test compound; for Salicyclic acid Rate: rate of release of salicylic acid; for Test compound Concentration: remaining test compound; for Salicyclic acid Concentration: salicylic acid released from test compound, 0.2 mg/mL
# Method: A 25% solution of human serum in 0.01M phosphate buffer was taken and the test compound (glucose aspirin or aspirin) were added to get a concentration of 0.2 mg/mL. The hydrolysis for the rate of release of salicylic acid and the rate of decomposition of the test compound were measured by HPLC.
# [8] = test system: cancer cell lines SKBR3, Panc1, PC-3; test: Cellular inhibition, Alamar Blue, cancer cell lines taken together; type: cell-based; settings: 24 hours
# Method: as §3
# [9] = Example 9, 100 mg/kg oral with food, 30 min
# [10] = Example 9, 100 mg/kg oral with food, 60 min
# [11] = Example 9, 100 mg/kg oral with food, 90 min
# [12] = Example 9, 100 mg/kg oral with food, 120 min
# [13] = Example 9, 100 mg/kg oral with food, 180 min
# [14] = Example 9, 100 mg/kg oral with food, column headed min
# [15] = Example 5, 100 and 200 mg/kg i.p., rats
molecule,measurement,setting,value
"Nc1ccn([C@@H]2O[C@H](CO)[C@@H](O)C2(F)F)c(=O)n1 [NJ-92-1, Gemcitabine.HCl]",GI50,PC3 cells,3.85 µg/mL
same,GI50,PANC-1 cells,7.18 µg/mL
diacetylcurcumin [NJ-58-1],inhibition of normal lung cells (WI-38),[1]; 24 hours,less than 10%
same,IC50,"[1]; WI38, 24 hours",4390 µM
same,IC50,"[1]; WI38, 48 hours",155 µM
same,IC50,"[2]; PANC1, 24 hours",268 µM
same,IC50,"[2]; PANC1, 48 hours",133 µM
same,IC50,"[3]; SKBR3, 24 hours",171 µM
same,IC50,"[3]; SKBR3, 48 hours",125 µM
same,IC50,"[4]; PC3, 24 hours",96.1 µM
same,IC50,"[4]; PC3, 48 hours",67 µM
same,"Anti-inflammatory activity, paw edema (in words)","[5]; Example 9, 100 mg/kg oral",strong
same,Percent inhibition of paw edema (Std. Error),"[5]; 1 hr, listed as Curcumin diacetate",76%
same,Percent inhibition of paw edema (Std. Error),"[5]; 1 hr, listed as NJ-104-4",76.49 (8.35) %
same,Percent inhibition of paw edema (Std. Error),"[5]; 2 hr, listed as Curcumin diacetate",80%
same,Percent inhibition of paw edema (Std. Error),"[5]; 2 hr, listed as NJ-104-4",80.56 (5.84) %
same,Percent inhibition of paw edema (Std. Error),"[5]; 3 hr, listed as Curcumin diacetate",76%
same,Percent inhibition of paw edema (Std. Error),"[5]; 3 hr, listed as NJ-104-4",76.74 (8.22) %
same,Tail flick latency time,[6]; [9],3.675 s
same,Tail flick latency time,[6]; [10],3.6125 s
same,Tail flick latency time,[6]; [11],3.6375 s
same,Tail flick latency time,[6]; [12],3.4375 s
same,Tail flick latency time,[6]; [13],3.675 s
same,Tail flick latency time,[6]; [14],3.4375 s
COc1cc(/C=C/C(=O)CC(=O)/C=C/c2ccc(O)c(OC)c2)ccc1O [Curcumin],inhibition of normal lung cells (WI-38),"[1]; 24 hours, 100, 150 and 300 uM",over 20%
same,IC50,"[1]; Homo sapiens, WI-38, WI38, 24 hours",1000 µM
same,IC50,"[1]; Homo sapiens, WI-38, WI38, 48 hours",89.9 µM
same,IC50,"[2]; Homo sapiens, PANC-1, PANC1, 24 hours",41.5 µM
same,IC50,"[2]; Homo sapiens, PANC-1, PANC1, 48 hours",38.2 µM
same,IC50,"[3]; Homo sapiens, SK-BR-3, SKBR3, 24 hours",84.1 µM
same,IC50,"[3]; Homo sapiens, SK-BR-3, SKBR3, 48 hours",99.4 µM
same,IC50,"[4]; PC3, 24 hours",29.5 µM
same,IC50,"[4]; PC3, 48 hours",24.2 µM
same,Paw circumference,[5]; 0 h,3.2 mm
same,Paw circumference,[5]; 1 h,3.68 mm
same,Paw circumference,[5]; 2 h,3.45 mm
same,Paw circumference,[5]; 3 h,3.53 mm
same,Tail flick latency time,"[6]; Example 8 (in vivo), 100 mg/kg oral with food, 0 min",2.67 s
same,Tail flick latency time,"[6]; Example 8 (in vivo), 100 mg/kg oral with food, 30 min",2.58 s
same,Tail flick latency time,"[6]; Example 8 (in vivo), 100 mg/kg oral with food, 60 min",2.8* seconds
same,Tail flick latency time,"[6]; Example 8 (in vivo), 100 mg/kg oral with food, 90 min",3.18* seconds
same,Tail flick latency time,"[6]; Example 8 (in vivo), 100 mg/kg oral with food, 120 min",3.03 s
same,Tail flick latency time,"[6]; Example 8 (in vivo), 100 mg/kg oral with food, 180 min",2.68 s
same,Tail flick / analgesic activity (in words),"[6]; Example 8 (in vivo), oral, 100 mg/kg total (combinations 50 mg/kg each)",stronger activity at 60 and 90 minutes
curcumin-glutarate [MT-76-1],IC50,"[1]; WI38, 24 hours",298 µM
same,IC50,"[1]; WI38, 48 hours",166 µM
same,IC50,"[2]; PANC1, 24 hours",35.4 µM
same,IC50,"[2]; PANC1, 48 hours",123 µM
same,IC50,"[3]; SKBR3, 24 hours",169 µM
same,IC50,"[3]; SKBR3, 48 hours",118 µM
same,IC50,"[4]; PC3, 24 hours",127 µM
same,IC50,"[4]; PC3, 48 hours",71.6 µM
"CC(=O)Oc1ccccc1C(=O)O[C@@H]([C@H](O)[C@H](O)CO)[C@@H](O)C=O [PMN II-168, 3-(2′-Acetyloxybenzoyl)-D-glucose]",Hydrolysis rate in human serum (in words),[7]; compared with aspirin,much slower rate than aspirin
same,"Average rate, test compound","[7]; decomposition of test compound, 0-180 min",-3.3e-07 M/min
same,Test compound Rate,[7]; 0 min,0 M/min
same,Test compound Rate,[7]; 30 min,1.91e-07 M/min
same,Test compound Rate,[7]; 60 min,-2.24e-07 M/min
same,Test compound Rate,[7]; 90 min,-3.62e-07 M/min
same,Test compound Rate,[7]; 120 min,-2.96e-07 M/min
same,Test compound Rate,[7]; 180 min,-4.38e-07 M/min
same,Salicyclic acid Rate,[7]; 0 min,0 M/min
same,Salicyclic acid Rate,[7]; 30 min,0 M/min
same,Salicyclic acid Rate,[7]; 120 min,9.11e-07 M/min
same,Salicyclic acid Rate,[7]; 180 min,1.97e-07 M/min
same,"Average rate, salicyclic acid","[7]; release of salicylic acid, 0-180 min",9.08e-08 M/min
same,Test compound Concentration,[7]; 0 min,198 µM
same,Test compound Concentration,[7]; 30 min,203 µM
same,Test compound Concentration,[7]; 60 min,184 µM
same,Test compound Concentration,[7]; 90 min,165 µM
same,Test compound Concentration,[7]; 120 min,162 µM
same,Test compound Concentration,[7]; 180 min,119 µM
same,Salicyclic acid Concentration,[7]; 0 min,0 µM
same,Salicyclic acid Concentration,[7]; 30 min,0 µM
same,Salicyclic acid Concentration,[7]; 60 min,2.7 µM
same,Salicyclic acid Concentration,[7]; 90 min,2.75 µM
same,Salicyclic acid Concentration,[7]; 120 min,10.9 µM
same,Salicyclic acid Concentration,[7]; 180 min,35.4 µM
same,IC50,"[1]; WI38, 24 hours",376 µM
same,IC50,"[1]; WI38, 48 hours",310 µM
same,IC50,"[2]; PANC1, 24 hours",399 µM
same,IC50,"[2]; PANC1, 48 hours",90.5 µM
same,inhibition of proliferation,[2]; 150 uM,~60%
same,inhibition of proliferation,[2]; 300 uM,~70%
same,IC50,"[3]; SKBR3, 24 hours",201 µM
same,IC50,"[3]; SKBR3, 48 hours",87.8 µM
same,inhibition of proliferation,[3]; 150 uM,~60%
same,inhibition of proliferation,[3]; 300 uM,approximately 90%
same,IC50,"[4]; PC3, 24 hours",83.2 µM
same,IC50,"[4]; PC3, 48 hours",81.4 µM
same,inhibition of proliferation,[4]; 150 uM,~65%
same,inhibition of proliferation,[4]; 300 uM,~85%
same,inhibition of cancer cell growth,[8]; 300 uM,up to 60%
same,inhibition of cancer cell growth,[8]; four lower concentrations,20%
same,Suppression of carrageenan-induced paw edema (in words),[5]; [15],significantly suppressed carrageenan-induced paw edema
same,Tail flick latency / analgesic activity (in words),[6]; [15],significant analgesic activity
Curcumin diglutarate [NJ-104-5],Percent inhibition of paw edema (Std. Error),[5]; 1 hr,49.26 (3.94) %
same,Percent inhibition of paw edema (Std. Error),[5]; 2 hr,37.50 (5.11) %
same,Percent inhibition of paw edema (Std. Error),[5]; 3 hr,20.05 (8.34) %
same,"Analgesic activity, tail flick (in words)","[6]; Example 9, 100 mg/kg oral",strong activity at 90 and 180 minutes; also recorded: strong analgesic activity
same,Tail flick latency time,[6]; [9],3.5625 s
same,Tail flick latency time,[6]; [10],3.6125 s
same,Tail flick latency time,[6]; [11],3.7375 s
same,Tail flick latency time,[6]; [12],3.05 s
same,Tail flick latency time,[6]; [13],3.5625 s
same,Tail flick latency time,[6]; [14],3.05 s
